Data reported in BigSolDB 2.1.

Details: in water

solubility (mole fraction) (293.15 K) | solubility (mole fraction) (298.15 K) | solubility (mole fraction) (303.15 K) | solubility (mole fraction) (308.15 K) | solubility (mole fraction) (313.15 K) | solubility (mole fraction) (318.15 K) | solubility (mole fraction) (323.15 K) | SMILES
2.02e-05 | 2.27e-05 | 2.54e-05 | 2.92e-05 | 3.38e-05 | 3.93e-05 | 4.69e-05 | CCn1cc(C(=O)O)c(=O)c2cc(F)c(N3CCNCC3)cc21
1.85e-05 | 2.04e-05 | 2.3e-05 | 2.63e-05 | 3.02e-05 | 3.4e-05 | 3.83e-05 | CCn1cc(C(=O)O)c(=O)c2cnc(N3CCNCC3)nc21
3.48e-05 | 3.77e-05 | 4.33e-05 | 4.9e-05 | 5.63e-05 | 6.54e-05 | 7.57e-05 | CCn1cc(C(=O)O)c(=O)c2cc(F)c(N3CCNC(C)C3)c(F)c21 (stereo unspecified)
